According to the supplement of paper PMC10307832:

Columns and labels:
Experiment in all cases: relative viability (nuclei count vs DMSO), 5 days (fraction); higher = more cells survive
[1] = compound: CN(c1ncccc1CNc1nc(Nc2ccc3c(c2)CC(=O)N3)ncc1C(F)(F)F)S(C)(=O)=O + CC1(C)CCC(c2ccc(Cl)cc2)=C(CN2CCN(c3ccc(C(=O)NS(=O)(=O)c4ccc(N[C@H](CCN5CCOCC5)CSc5ccccc5)c(S(=O)(=O)C(F)(F)F)c4)cc3)CC2)C1 [Navitoclax] (partner 0.5 µM)
Summary of the method: (§1)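 Values are medians from duplicate plates. Each reflects relative viability, defined as the nuclei count of treated wells over that of vehicle wells. Lung cancer cell lines in 1536-well plates were pin-tool dosed one day after seeding with one drug alone or with a fixed anchor-drug dose plus five library-drug doses (not always all listed) in √10 steps, then fixed, stained and imaged at 4× after 5 days.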

[2] = compound: CN(c1ncccc1CNc1nc(Nc2ccc3c(c2)CC(=O)N3)ncc1C(F)(F)F)S(C)(=O)=O + C[C@]1(O)C[C@@H](c2nc(-c3ccc4ccc(-c5ccccc5)nc4c3)c3c(N)nccn32)C1 [Linsitinib] (partner 1 µM)
Summary of the method: as §1

[3] = compound: CN(c1ncccc1CNc1nc(Nc2ccc3c(c2)CC(=O)N3)ncc1C(F)(F)F)S(C)(=O)=O + Cc1nc(NC(=O)N2CCC[C@H]2C(N)=O)sc1-c1ccnc(C(C)(C)C(F)(F)F)c1 [Alpelisib] (partner 2 µM)
Summary of the method: as §1

[4] = compound: CN(c1ncccc1CNc1nc(Nc2ccc3c(c2)CC(=O)N3)ncc1C(F)(F)F)S(C)(=O)=O + O=C(CCCCCCC(=O)Nc1ccccc1)NO [Vorinostat] (partner 1 µM)
Summary of the method: as §1

Row | Cell Line | relative viability ([1]; first compound 0.03162 µM) | relative viability ([1]; first compound 0.1 µM) | relative viability ([1]; first compound 0.3162 µM) | relative viability ([1]; first compound 1 µM) | relative viability ([2]; first compound 0.03162 µM) | relative viability ([2]; first compound 0.1 µM) | relative viability ([2]; first compound 0.3162 µM) | relative viability ([2]; first compound 1 µM) | relative viability ([3]; first compound 0.03162 µM) | relative viability ([3]; first compound 0.1 µM) | relative viability ([3]; first compound 0.3162 µM) | relative viability ([3]; first compound 1 µM) | relative viability ([4]; first compound 0.01 µM) | relative viability ([4]; first compound 0.03162 µM) | relative viability ([4]; first compound 0.1 µM) | relative viability ([4]; first compound 0.3162 µM) | relative viability ([4]; first compound 1 µM) | relative viability ([1]; first compound 0.01 µM) | relative viability ([2]; first compound 0.01 µM) | relative viability ([3]; first compound 0.01 µM)
1 | LCLC-97TM1 | 0.394 | 0.25 | 0.381 | 0.385 | 0.226 | 0.167 | 0.216 | 0.152 | 0.246 | 0.229 | 0.246 | 0.161 | 0.644 | 0.82 | 0.609 | 0.751 | 0.586 |  |  | 
2 | HARA | 1.19 | 1.14 | 0.91 | 0.968 | 1.06 | 1.03 | 0.978 | 0.856 | 0.79 | 0.744 | 0.695 | 0.625 | 0.569 | 0.573 | 0.55 | 0.516 | 0.432 | 1.18 | 0.945 | 0.733
3 | HCC-78 | 0.845 | 0.73 | 0.632 | 0.674 | 0.578 | 0.425 | 0.439 | 0.486 | 0.407 | 0.285 | 0.361 | 0.31 | 0.526 | 0.47 | 0.431 | 0.414 | 0.403 | 0.81 | 0.654 | 0.368
4 | NCI-H1666 | 0.986 | 0.906 | 0.795 | 0.57 | 0.816 | 0.943 | 0.72 | 0.612 | 0.72 | 0.877 | 0.79 | 0.686 | 1.07 | 0.94 | 0.926 | 0.758 | 0.767 | 1.1 | 0.814 | 1.11
5 | NCI-H2347 | 0.69 | 0.699 | 0.701 | 0.592 | 0.98 | 0.852 | 0.947 | 0.817 | 0.973 | 0.893 | 0.972 | 0.817 | 0.584 | 0.615 | 0.527 | 0.54 | 0.413 | 0.879 | 0.938 | 1.06
6 | NCI-H838 | 1.35 | 1.27 | 1.02 | 0.851 | 1.07 | 1.02 | 0.83 | 0.745 | 1.17 | 1.01 | 0.862 | 0.705 | 0.715 | 0.731 | 0.94 | 0.589 | 0.437 | 1.17 | 0.981 | 0.961
7 | NCI-H2023 | 1.1 | 0.985 | 0.938 | 0.837 | 0.714 | 0.73 | 0.71 | 0.631 | 0.677 | 0.668 | 0.59 | 0.507 | 0.636 | 0.826 | 0.666 | 0.709 | 0.487 | 0.998 | 0.765 | 0.521
8 | 201T | 1.26 | 1.18 | 1.16 | 1.15 | 1.04 | 1.04 | 1.01 | 0.995 | 0.989 | 0.971 | 0.968 | 0.976 | 0.971 | 0.98 | 0.915 | 0.9 | 0.923 | 1.21 | 1.05 | 1.01
9 | NCI-H1915 | 0.849 | 0.786 | 0.765 | 0.728 | 1.1 | 0.983 | 1.1 | 1.02 | 1.1 | 1.03 | 1.05 | 1.02 | 0.535 | 0.534 | 0.593 | 0.536 | 0.519 | 0.803 | 1.1 | 1.07
10 | NCI-H2009 | 1.16 | 1.13 | 1.1 | 1.07 | 1.18 | 1.18 | 1.24 | 1.09 | 1.21 | 1.17 | 1.17 | 1.1 | 0.724 | 0.838 | 0.693 | 0.75 | 0.685 | 1.12 | 1.14 | 1.12
11 | BEN | 0.0546 | 0.0649 | 0.0815 | 0.0763 | 0.972 | 0.938 | 0.879 | 1.04 | 1.2 | 1.02 | 1.05 | 1.03 | 0.546 | 0.625 | 0.578 | 0.544 | 0.554 | 0.0691 | 0.912 | 1.02
12 | PC-14 | 1.16 | 1.03 | 1.01 | 1.04 | 1 | 1.06 | 0.961 | 1.01 | 1.07 | 0.982 | 0.951 | 0.869 | 0.75 | 0.764 | 0.692 | 0.811 | 0.653 | 1.02 | 0.976 | 1.02
13 | SK-MES-1 | 1.18 | 1.21 | 1.2 | 0.97 | 1.06 | 1.08 | 0.925 | 1.01 | 0.926 | 0.843 | 0.882 | 0.712 | 1.1 | 1.13 | 1.09 | 1.08 | 0.951 | 1.3 | 1.04 | 0.915
14 | NCI-H727 | 0.438 | 0.435 | 0.378 | 0.322 | 0.305 | 0.352 | 0.273 | 0.21 | 0.606 | 0.565 | 0.448 | 0.444 | 1.26 | 1.29 | 1.23 | 1.08 | 1.34 | 0.429 | 0.317 | 0.638
15 | NCI-H1355 | 1.02 | 0.968 | 0.846 | 0.776 | 0.943 | 0.846 | 0.78 | 0.679 | 0.945 | 0.797 | 0.801 | 0.696 | 0.67 | 0.708 | 0.676 | 0.589 | 0.623 | 0.942 | 0.776 | 0.882
16 | NCI-H1975 | 1.12 | 1.11 | 1.01 | 0.854 | 1.22 | 1.02 | 0.925 | 0.821 | 0.592 | 0.611 | 0.67 | 0.59 | 0.726 | 0.688 | 0.666 | 0.71 | 0.613 | 1.01 | 1.01 | 0.66
